In paper PMC10949812, “Unveiling CXCR2 as a promising therapeutic target in renal cell carcinoma: exploring the immunotherapeutic paradigm shift through its inhibition by RCT001” (Journal of Experimental & Clinical Cancer Research : CR, 2024):

What was measured:
[1] = molecular target: T1, CXCR2 (Homo sapiens, UniProt P25025); assay: fluorescent conformational probe (λmax shift) on recombinant reconstituted CXCR2, dose response and kinetics; type: binding
T1 construct: recombinant CXCR2 reconstituted in detergent buffer containing lipids
T1 sequence (P25025 1-360): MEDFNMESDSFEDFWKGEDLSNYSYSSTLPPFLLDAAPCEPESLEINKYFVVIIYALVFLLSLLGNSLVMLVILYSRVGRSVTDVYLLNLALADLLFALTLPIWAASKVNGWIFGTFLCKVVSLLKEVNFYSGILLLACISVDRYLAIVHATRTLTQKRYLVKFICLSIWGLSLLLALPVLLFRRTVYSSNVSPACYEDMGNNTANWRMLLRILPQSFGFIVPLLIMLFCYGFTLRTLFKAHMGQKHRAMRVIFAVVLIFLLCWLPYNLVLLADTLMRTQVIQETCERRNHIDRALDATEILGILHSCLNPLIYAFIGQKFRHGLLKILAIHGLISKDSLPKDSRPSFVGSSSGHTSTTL

[2] = molecular target: T1, CXCR2; assay: fluorescent conformational probe (λmax shift) kinetics on recombinant CXCR2, SX-682 […] after CXCL8 […]; type: biochemical

SMILES | EC50 [1] | fluorescent conformational probe (λmax shift) kinetics on recombinant CXCR2, SX- [2]
O=C(Nc1cc(Cl)cc(Cl)c1)Nc1nc2ccc([N+](=O)[O-])cc2s1 [RCT001, 1-(3,5-dichlorophenyl)-3-(6-nitrobenzo[d]thiazol-2-yl) urea] | 42.7 nM | –
O=C(Nc1ccc(F)cc1)c1cnc(SCc2cc(OC(F)(F)F)ccc2B(O)O)nc1 [SX-682] | – | Unlike RCT001, SX-682 inhibited CXCL8-induced pocket opening of CXCR2 (Fig. S3c), firmly establishing it as a standard CXCR2 antagonist
